Read-outs that look alike come from different tables or passages of the source.
What was measured:
[1] = tested on: Pseudomonas aeruginosa 2638; set-up: key: S = susceptible; I = intermediate; R = resistant; details: strain 2638; cited from earlier work
[2] = tested on: Pseudomonas aeruginosa 9139; set-up: key: S = susceptible; I = intermediate; R = resistant; details: strain 9139; cited from earlier work
[3] = tested on: Pseudomonas aeruginosa 3072; set-up: key: S = susceptible; I = intermediate; R = resistant; details: strain 3072; cited from earlier work
[4] = tested on: Pseudomonas aeruginosa 823; set-up: key: S = susceptible; I = intermediate; R = resistant; details: strain 823; cited from earlier work
[5] = tested on: Pseudomonas aeruginosa 26975; set-up: key: S = susceptible; I = intermediate; R = resistant; details: strain 26975; cited from earlier work
[6] = tested on: Pseudomonas aeruginosa 3076; set-up: key: S = susceptible; I = intermediate; R = resistant; details: strain 3076; cited from earlier work
[7] = tested on: Pseudomonas aeruginosa 24530; set-up: key: S = susceptible; I = intermediate; R = resistant; details: strain 24530; cited from earlier work
[8] = tested on: Pseudomonas aeruginosa 3068; set-up: key: S = susceptible; I = intermediate; R = resistant; details: strain 3068; cited from earlier work
[9] = tested on: Pseudomonas aeruginosa 3070; set-up: key: S = susceptible; I = intermediate; R = resistant; details: strain 3070; cited from earlier work
[10] = tested on: Pseudomonas aeruginosa 3071; set-up: key: S = susceptible; I = intermediate; R = resistant; details: strain 3071; cited from earlier work
[11] = tested on: E. coli ATCC 25922; experiment: Broth microdilution MIC / FICI; type: cell-based; details: Escherichia coli, ATCC25922
Method: (§1) Antimicrobial efficacy was assessed by the broth microdilution assay in accordance with NCCLS guidelines (Coyle, Marie B. Manual of antimicrobial susceptibility testing. American Society for Microbiology, 2005). Organisms were grown overnight on non-selective MHA medium in order to obtain single colonies. Three to five morphologically distinct colonies were touched with a sterile pipet tip and transferred to a culture tube containing MHB (4 mL), and the broth culture was incubated at 37° C. until its turbidity matched a 0.5 McFarland Standard. The inoculum was then diluted 1:20 in sterile water, followed by a 1:10 dilution when inoculating wells of a 96-well plate. […] For combinations, the fractional inhibitory concentration index (FICI) was calculated using the following equation: [formula]

[12] = tested on: P. aeruginosa ATCC 27853; experiment: Broth microdilution MIC / FICI; type: cell-based; details: Pseudomonas aeruginosa, ATCC27853
Method: as §1

[13] = tested on: P. aeruginosa PAO1; experiment: Broth microdilution MIC / FICI; type: cell-based; details: Pseudomonas aeruginosa
Method: as §1

[14] = tested on: P. aeruginosa MDR 24530; experiment: Broth microdilution MIC / FICI; type: cell-based; details: Pseudomonas aeruginosa, MDR24530
Method: as §1, with “[formula]” left out

[15] = tested on: P. aeruginosa MDR 2638; experiment: Broth microdilution MIC / FICI; type: cell-based; details: Pseudomonas aeruginosa, MDR2638
Method: as §1, with “[formula]” left out

[16] = tested on: P. aeruginosa MDR 3072; experiment: Broth microdilution MIC / FICI; type: cell-based; details: Pseudomonas aeruginosa, MDR3072
Method: as §1, with “[formula]” left out

[17] = tested on: P. aeruginosa ATCC 27853; experiment: Disk diffusion, zones of inhibition; type: cell-based, Pseudomonas aeruginosa; details: for zone of inhibition, A: same disks and plates; for zone of inhibition at 30 µg/disc: Pseudomonas aeruginosa
Method: (§2) Single colonies were grown in MHB to match a 0.5 McFarland standard. A sterile cotton swab was dipped into the various MDR strain inoculums and spread evenly over the surface of the agar plates. Purchased antibiotic-containing disks at fixed concentrations (Table 4) were placed on the surface of each plate and incubated overnight at 37° C. Zones of inhibition were measured the following morning. Measurements included the diameter (d) of the antibiotic disk (6 mm) and are reported in terms of diameters and areas. […] Typically for diameters, R<10, I 11-15, and S>15 where R=resistance, I=intermediate resistance, and S=susceptible.

[18] = tested on: P. aeruginosa MDR strain 24530; experiment: Disk diffusion, zones of inhibition; type: cell-based, Pseudomonas aeruginosa; details: for zone of inhibition, A: same disks and plates; for zone of inhibition at 30 µg/disc: Pseudomonas aeruginosa, read-out: zone of inhibition, d
Method: as §2

[19] = tested on: P. aeruginosa MDR strain 3072; experiment: Disk diffusion, zones of inhibition; type: cell-based, Pseudomonas aeruginosa; details: for zone of inhibition, A: same disks and plates; for zone of inhibition at 30 µg/disc: Pseudomonas aeruginosa, read-out: zone of inhibition, d
Method: as §2

[20] = tested on: P. aeruginosa PAO1; experiment: Disk diffusion, zones of inhibition; type: cell-based, Pseudomonas aeruginosa; details: for zone of inhibition at 30 µg/disc: Pseudomonas aeruginosa
Method: as §2

SMILES	Phenotype (drug resistance profile) [1]	Phenotype (drug resistance profile) [2]	Phenotype (drug resistance profile) [3]	Phenotype (drug resistance profile) [4]	Phenotype (drug resistance profile) [5]	Phenotype (drug resistance profile) [6]	Phenotype (drug resistance profile) [7]	Phenotype (drug resistance profile) [8]	Phenotype (drug resistance profile) [9]	Phenotype (drug resistance profile) [10]	further results
NC[C@H]1O[C@H](O[C@H]2[C@H](O)[C@@H](O[C@H]3O[C@H](CO)[C@@H](O)[C@H](N)[C@H]3O)[C@H](N)C[C@@H]2N)[C@H](N)C[C@@H]1O [TOB, tobramycin]	CAZ-R, TZP-R, CIP-R, TOB-R	S	R	S	R	S	S				
C[C@@H](O)[C@H]1C(=O)N2C(C(=O)O)=C(S[C@@H]3CN[C@H](C(=O)N(C)C)C3)[C@H](C)[C@H]12 [MEM, meropenem]	DOR-R, IPM-R, MEM-R, FEP-R,	S	R	S	S	R	DOR-R, IPM-R, MEM-R, FEP-R,	DOR-R, IPM-R, MEM-R, FEP-R,	R	DOR-R, IPM-R, MEM-R, FEP-R,	
CN[C@H](CC(C)C)C(=O)N[C@H]1C(=O)N[C@@H](CC(N)=O)C(=O)N[C@H]2C(=O)N[C@H]3C(=O)N[C@H](C(=O)N[C@H](C(=O)O)c4cc(O)cc(O)c4-c4cc3ccc4O)[C@H](O)c3ccc(c(Cl)c3)Oc3cc2cc(c3O[C@@H]2O[C@H](CO)[C@@H](O)[C@H](O)[C@H]2O[C@H]2C[C@](C)(N)[C@H](O)[C@H](C)O2)Oc2ccc(cc2Cl)[C@H]1O [VAN, vancomycin]											MIC [11]: 128 µg/mL; MIC [12]: > 1020 µg/mL; MIC ([13]; PAO1): > 1020 µg/mL; MIC [14]: 1020 µg/mL; MIC [15]: 512 µg/mL; MIC [16]: > 1020 µg/mL; zone of inhibition, A [17]; 27853: 0 mm^2; zone of inhibition at 30 µg/disc ([17]; ATCC27853, read-out: zone of inhibition, d): 0 mm; zone of inhibition, A [18]; 24530: 0 mm^2; zone of inhibition at 30 µg/disc [18]: 0 mm; zone of inhibition, A [19]; 3072: 0 mm^2; zone of inhibition at 30 µg/disc [19]: 0 mm; A of region where some growth is still visible (in parentheses) ([20]; PAO1, same disks and plates): 64 mm^2; d of region where some growth is still visible (in parentheses) ([20]; PAO1, same disks and plates): 9 mm; zone of inhibition, A ([20]; PAO1, same disks and plates): 0 mm^2; zone of inhibition at 30 µg/disc ([20]; PAO1, read-out: zone of inhibition, d): 0 mm
CO[C@@H]1[C@@H](OC(N)=O)[C@@H](O)[C@H](Oc2ccc3c(O)c(NC(=O)c4ccc(O)c(CC=C(C)C)c4)c(=O)oc3c2C)OC1(C)C [NVB, novobiocin sodium]											MIC ([11]; E. coli ATCC 25922, Example 9, read-out: MIC (Table 7, agent alone)): 48 µg/mL; MIC ([11]; E. coli ATCC 25922, antibiotic alone, Table 3, read-out: MIC): 32 µg/mL; MIC [12]: 128 µg/mL; MIC ([12]; P. aeruginosa ATCC 27853, Example 9, read-out: MIC (Table 7, agent alone)): > 128 µg/mL; MIC ([13]; P. aeruginosa PAO1, Example 9, read-out: MIC (Table 7, agent alone)): > 128 µg/mL; MIC ([13]; PAO1, antibiotic alone, Table 3, read-out: MIC): > 512 µg/mL; MIC ([14]; MDR 24530, antibiotic alone, read-out: MIC): > 512 µg/mL; MIC ([15]; MDR 2638, antibiotic alone, read-out: MIC): > 512 µg/mL; MIC ([16]; MDR 3072, antibiotic alone, read-out: MIC): > 512 µg/mL; zone of inhibition, A [17]; 27853: 44 mm^2; zone of inhibition at 30 µg/disc ([17]; ATCC27853, 27853, disks NVB 30 μg, ERY 15 μg, RIF 5 μg, VAN 30 μg, MHA with or without 256 μM DG-F125, includes 6 mm disk, read-out: zone of inhibition, d): 7.5 mm; zone of inhibition, A [18]; 24530: 0 mm^2; zone of inhibition at 30 µg/disc ([18]; 24530, disks NVB 30 μg, ERY 15 μg, RIF 5 μg, VAN 30 μg, MHA with or without 256 μM DG-F125, includes 6 mm disk): 0 mm; zone of inhibition, A [19]; 3072: 0 mm^2; zone of inhibition at 30 µg/disc ([19]; 3072, disks NVB 30 μg, ERY 15 μg, RIF 5 μg, VAN 30 μg, MHA with or without 256 μM DG-F125, includes 6 mm disk): 0 mm; zone of inhibition, A ([20]; PAO1, same disks and plates): 0 mm^2; zone of inhibition at 30 µg/disc ([20]; PAO1, disks NVB 30 μg, ERY 15 μg, RIF 5 μg, VAN 30 μg, MHA with or without 256 μM DG-F125, includes 6 mm disk, read-out: zone of inhibition, d): 0 mm
C[C@@H](O)[C@H]1C(=O)N2C(C(=O)O)=C(S[C@@H]3CN[C@H](CNS(N)(=O)=O)C3)[C@H](C)[C@H]12 [DOR, doripenem]	DOR-R, IPM-R, MEM-R, FEP-R,	S	R	S	S	R	DOR-R, IPM-R, MEM-R, FEP-R,	DOR-R, IPM-R, MEM-R, FEP-R,	R	DOR-R, IPM-R, MEM-R, FEP-R,	
CC(C)(O/N=C(\C(=O)N[C@@H]1C(=O)N2C(C(=O)[O-])=C(C[n+]3ccccc3)CS[C@H]12)c1csc(N)n1)C(=O)O [CAZ, ceftazidime]	CAZ-R, TZP-R, CIP-R, TOB-R	S	S	R	R	R	R	S	R	CAZ-R, TZP-R, CIP-R	
CO/N=C(\C(=O)N[C@@H]1C(=O)N2C(C(=O)[O-])=C(C[N+]3(C)CCCC3)CS[C@H]12)c1csc(N)n1 [FEP, cefepime]	DOR-R, IPM-R, MEM-R, FEP-R,	R	S	R	R	I	DOR-R, IPM-R, MEM-R, FEP-R,	DOR-R, IPM-R, MEM-R, FEP-R,	I	DOR-R, IPM-R, MEM-R, FEP-R,	
O=C(O)c1cn(C2CC2)c2cc(N3CCNCC3)c(F)cc2c1=O [CIP, ciprofloxacin]	CAZ-R, TZP-R, CIP-R, TOB-R	S	R	S	S	R	S	R	R	CAZ-R, TZP-R, CIP-R	
